# Measurements reported in the supplement of paper PMC10307832.
# Experiments:
# Assay in all cases: relative viability (nuclei count vs DMSO), 5 days (fraction); higher = more cells survive
# AT9283 + Linsitinib = compound: O=C(Nc1c[nH]nc1-c1nc2ccc(CN3CCOCC3)cc2[nH]1)NC1CC1 [AT9283] + C[C@]1(O)C[C@@H](c2nc(-c3ccc4ccc(-c5ccccc5)nc4c3)c3c(N)nccn32)C1 [Linsitinib] (partner 1 µM)
# Summary of the method: (§1)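 Relative viability divides the nuclei count in treated wells by that in vehicle wells. Lung cancer cell lines were seeded in 1536-well plates, dosed by pin tool the next day, and fixed and stained after 5 days in one step with final 0.05% Triton X-100, 1% formaldehyde and 1 ug/ml Hoechst. Dosing was a single drug or a fixed anchor-drug dose plus five library-drug doses (not always all listed) in √10 steps, and values are medians of duplicate plates imaged at 4×.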
# Erlotinib + Tozasertib = compound: C#Cc1cccc(Nc2ncnc3cc(OCCOC)c(OCCOC)cc23)c1 [Erlotinib] + Cc1cc(Nc2cc(N3CCN(C)CC3)nc(Sc3ccc(NC(=O)C4CC4)cc3)n2)n[nH]1 [Tozasertib] (partner 0.1 µM)
# Summary of the method: as §1
# Erlotinib + Foretinib = compound: C#Cc1cccc(Nc2ncnc3cc(OCCOC)c(OCCOC)cc23)c1 [Erlotinib] + COc1cc2c(Oc3ccc(NC(=O)C4(C(=O)Nc5ccc(F)cc5)CC4)cc3F)ccnc2cc1OCCCN1CCOCC1 [Foretinib] (partner 0.25 µM)
# Summary of the method: as §1
# AT9283 + Decitabine = compound: O=C(Nc1c[nH]nc1-c1nc2ccc(CN3CCOCC3)cc2[nH]1)NC1CC1 [AT9283] + Nc1ncn([C@H]2C[C@H](O)[C@@H](CO)O2)c(=O)n1 [Decitabine] (partner 2 µM)
# Summary of the method: as §1
# AT9283 + Crizotinib = compound: O=C(Nc1c[nH]nc1-c1nc2ccc(CN3CCOCC3)cc2[nH]1)NC1CC1 [AT9283] + C[C@@H](Oc1cc(-c2cnn(C3CCNCC3)c2)cnc1N)c1c(Cl)ccc(F)c1Cl [Crizotinib] (partner 1 µM)
# Summary of the method: as §1
Cell Line,relative viability (AT9283 + Linsitinib; first compound 0.003 µM),relative viability (AT9283 + Linsitinib; first compound 0.03 µM),relative viability (AT9283 + Linsitinib; first compound 0.09487 µM),relative viability (AT9283 + Linsitinib; first compound 0.3 µM),relative viability (Erlotinib + Tozasertib; first compound 0.02 µM),relative viability (Erlotinib + Tozasertib; first compound 0.2 µM),relative viability (Erlotinib + Tozasertib; first compound 0.6325 µM),relative viability (Erlotinib + Tozasertib; first compound 2 µM),relative viability (Erlotinib + Foretinib; first compound 0.02 µM),relative viability (Erlotinib + Foretinib; first compound 0.2 µM),relative viability (Erlotinib + Foretinib; first compound 0.6325 µM),relative viability (Erlotinib + Foretinib; first compound 2 µM),relative viability (AT9283 + Decitabine; first compound 0.003 µM),relative viability (AT9283 + Decitabine; first compound 0.03 µM),relative viability (AT9283 + Decitabine; first compound 0.09487 µM),relative viability (AT9283 + Decitabine; first compound 0.3 µM),relative viability (AT9283 + Crizotinib; first compound 0.003 µM),relative viability (AT9283 + Crizotinib; first compound 0.03 µM),relative viability (AT9283 + Crizotinib; first compound 0.09487 µM),relative viability (AT9283 + Crizotinib; first compound 0.3 µM)
NCI-H2009,1.21,0.704,0.315,0.323,0.751,0.746,0.834,0.62,1.28,1.24,1.36,1.23,0.378,0.358,0.225,0.222,0.967,0.446,0.26,0.248
EKVX,0.966,0.79,0.434,0.204,0.329,0.226,0.212,0.111,0.519,,0.267,0.267,0.38,0.246,0.234,0.215,0.878,0.663,0.371,0.216
LC-2-ad,0.847,0.257,0.116,0.112,0.484,0.383,0.414,0.345,0.876,0.658,0.665,0.528,0.872,0.685,0.471,0.255,0.44,0.275,0.288,0.238
HCC-15,0.831,0.424,0.155,0.146,0.411,0.444,0.398,0.16,0.996,1.01,1.15,0.934,0.604,0.309,0.182,0.126,0.765,0.478,0.139,0.129
PC-3 [JPC-3],0.94,1.03,0.74,0.521,0.825,0.355,0.331,0.274,0.935,0.384,0.323,0.36,0.837,0.798,0.695,0.541,0.929,0.832,0.608,0.509
LK-2,0.341,0.351,0.129,0.127,0.196,0.17,0.157,0.158,1.24,0.718,1.46,1.23,0.215,0.116,0.113,0.0972,0.255,0.218,0.241,0.251
LOU-NH91,0.903,0.968,0.604,0.464,0.564,0.472,0.491,0.424,0.519,0.524,0.585,,0.83,0.77,0.522,0.509,0.686,0.679,0.52,0.429
NCI-H596,1.06,1.01,0.912,0.564,0.805,0.848,0.69,0.722,0.759,0.847,0.995,0.758,1.07,0.946,0.934,0.783,0.897,0.974,0.966,0.707
NCI-H3122,0.963,0.885,0.346,0.166,0.489,0.444,0.44,0.297,0.982,0.989,0.963,0.884,0.472,0.397,0.296,0.136,0.291,0.259,0.216,0.214
NCI-H647,1.11,0.17,0.151,0.11,0.257,0.179,0.28,0.136,1.13,1.04,1.32,1.04,0.427,0.401,0.205,0.127,1.01,0.357,0.201,0.121
EMC-BAC-2,0.85,0.634,0.205,0.226,0.279,0.345,0.32,0.25,1.05,0.778,0.877,0.898,0.992,0.496,0.338,0.321,0.67,0.36,0.163,0.151
SK-LU-1,1.1,0.349,0.323,0.356,0.336,0.352,0.332,0.267,0.961,0.975,0.997,0.699,0.62,0.423,0.415,0.407,0.922,0.519,0.295,0.305
HARA,0.428,0.879,0.0968,0.0955,0.0745,0.0897,0.0791,0.0606,0.929,0.602,0.636,0.401,0.46,0.264,0.165,0.185,1.1,0.4,0.105,0.13
PC-14,1.04,0.729,0.438,0.138,0.435,0.148,0.159,0.103,0.76,0.23,0.199,0.153,0.199,0.157,0.0721,0.0727,0.959,0.731,0.559,0.159
NCI-H1915,1.06,1.01,0.529,0.239,0.45,0.405,0.408,0.262,1.08,1.2,1.12,1.1,0.247,0.26,0.209,0.168,0.842,0.826,0.226,0.255
COR-L23,0.867,0.152,0.0945,0.135,0.253,0.202,0.163,0.114,1.11,0.947,1.18,0.928,0.385,0.304,0.169,0.168,0.616,0.185,0.118,0.158
